Measurements reported in PMC12294558, “New 1,2,4-Triazole Derivatives with a N-Mannich Base Structure Based on a 4,6-Dimethylpyridine Scaffold as Anticancer Agents: Design, Synthesis, Biological Evaluation, and Molecular Modeling” (International Journal of Molecular Sciences, 2025).

What was measured:
Caspase-3 = experiment: Human Caspase-3 (active) ELISA on HT-29 cell lysates; format: cell-based; conditions: HT-29, 1 µM, 24 h
Description: (§1) To check the effect of compound 6 on the level of p-53 and caspase-3 protein, another test was performed on HT-29 cells, taking doxorubicin as the reference drug.
(§2) To assess the level of caspase-3 and p53 protein, HT-29 cell lysates were used after 24 h of incubation with compounds 5 and 6. The supernatant was collected in the prepared and labeled tubes, the cells from the wells were scraped, and the wells were washed with cold PBS, which was also collected. The tubes were then centrifuged, the supernatant was removed, and the cell pellet was lysed in a cell extraction vessel for 30 min on ice, with […] every 10 min. The lysate was transferred to centrifuge tubes and centrifuged at 13,000 rpm for 10 min at 4 °C. The supernatant was transferred to clean tubes in a microcentrifuge.
(§3) The following kits were used: Human Caspase-3 (active) ELISA Kit (KHO1091) and p53 Human ELISA Kit (BMS256), used following the manufacturer’s instructions. ELISA kits were purchased from Thermo Fisher Scientific (Waltham, MA, USA). The absorbance was measured using a Multiskan GO microplate reader (Thermo Fisher Scientific, Waltham, MA, USA) at wavelengths specific to each kit, as recommended by the manufacturer.

p53 = p53 Human ELISA on HT-29 cell lysates; format: cell-based; conditions: HT-29, 1 µM, 24 h
Description: as §1, §2, §3

interleukin-1β = experiment: IL-1β ELISA in HT-29 supernatant; format: cell-based, human; conditions: HT-29, 1 µM
Excerpt: (§4) The different effects of the anticancer compound on IL-6 and IL-1β can be explained by the different regulatory mechanisms of these cytokines and the distinct signaling pathways targeted by the therapy. The reduction in IL-6 levels may be due to the direct action of the compound on pathways promoting this cytokine or its ability to inhibit inflammatory processes specific to IL-6. In contrast, the increase in IL-1β levels might result from the inflammatory response to cellular stress or apoptosis induced by the therapy, leading to activation of the immune system and increased production of IL-1β.
(§5) Cytokine levels (IL-1β and IL-6) in the supernatant were measured for HT-29 and EPG cells treated with compounds 5 and 6, according to the instructions provided by the manufacturer of the ELISA kits were purchased from Abcam (Cambridge, UK). The absorbance was measured using a Multiskan GO microplate reader (Thermo Fisher Scientific, Waltham, MA, USA) at wavelengths specific to each kit, as recommended by the manufacturer.

interleukin-6 = experiment: IL-6 ELISA in HT-29 supernatant; format: cell-based, human; conditions: HT-29, 1 µM
Excerpt: as §4, §5

## Cc1ccc(N2CCN(Cn3nc(CNC(=O)c4c(C)cc(C)nc4S)n(-c4ccccc4)c3=S)CC2)cc1 [Compound 6]
Caspase-3
  Caspase-3 Conc. ± SD: 0.48 ± 0.07 ng/mL
p53
  p53 Conc. ± SD: 3.50 ± 0.07 U/mL
interleukin-1β
  IL-1β Conc. ± SD: 0.51 ± 0.11 pg/mL
interleukin-6
  IL-6 Conc. ± SD: 7.80 ± 0.30 pg/mL
